# Measurements: publication PMC8069832, “New Amides and Phosphoramidates Containing Selenium: Studies on Their Cytotoxicity and Antioxidant Activities in Breast Cancer” (Antioxidants, 2021)
# Read-outs that look alike come from different tables or passages of the source.
# Legend:
# [1] = test system: MCF-7; assay: Autophagy and caspase inhibition assays (wortmannin, Z-VAD-FMK pretreatment); type: cell-based, human; details: I.1f 80 µM 72 h, I.2f 30 µM 24 h, II.2d 20 µM 24 h; for Compound-induced cell death after preincubation with wortmannin: 100 nM wortmannin 1 h; for Compound-induced cell death after preincubation with Z-VAD-FMK: 50 µM Z-VAD-FMK 1 h
# Procedure: For autophagy and caspase inhibition assays, cells were pretreated with 100 nM of autophagy inhibitor (wortmannin, Santa Cruz) and 50 µM of pan-caspase inhibitor (Z-VAD-FMK, BD Pharmingen) for 1 h. The cells were treated with the compounds I.2f (30 µM) and II.2d (20 µM) for 24 h and I.1f (80 µM) for 72 h. Samples were processed following the same methodology stated above. DMSO was used as a negative control for both inhibitors.
# Apoptosis and autophagy are considered as two recognized pathways for anticancer agents due to their effects on cell survival. In the next step, in order to investigate whether the cell death pathway is related to apoptosis or autophagy, we explored the effect of pre-treated cells with either an autophagy inhibitor (wortmannin) or a pan-caspase inhibitor (Z-VAD-FMK). According to the previous results, determinations were performed after treatment with 80 μM of I.1f for 72 h, 30 μM of I.2f for 24 h and 20 μM of II.2d for 24 h.
# [2] = test system: MCF-7; assay: Cell cycle phase distribution by flow cytometry; type: cell-based, human; details: 24 h, different doses
# Procedure: (§1) For the MCF-7 cell line, both cell cycle analysis and the cell death percentage were determined using the Apo-Direct kit (BD Pharmingen) based on the TUNEL technique, according to the manufacturer’s instructions. Cells were seeded in 25 cm^2 flasks (3 × 10^6 for 24 h of treatment, 2 × 10^6 for 48 h and 10^6 for 72 h) treated with DMSO (negative control), 6 µM of camptothecin (positive control) and different concentrations of I.1f, I.2f and II.2d.
# (§2) After treatment, cells were collected and fixed with 1% paraformaldehyde (Sigma) in PBS (pH = 7.4), incubated in ice for 40 min, collected by centrifugation, washed with PBS and incubated with 70% ethanol for 30 min at −20 °C. After fixation, cells were washed twice with PBS and incubated for 1 h at 37 °C with FITC dUTP-DNA Labeling Solution. Cells were then rinsed and incubated in the dark for 30 min at room temperature with PI/RNase staining buffer before being analyzed by flow cytometry (Coulter Epics XL, Beckman Coulter Flow cytometer). Then, cells were treated with compounds I.1f (80 µM), I.2f (30 µM) and II.2d (5 µM) at different times (from 8 to 72 h) following the same methodology.
# (§3) Apoptosis and cell cycle arrest are typical mechanisms of action for many anticancer drugs, including selenocompounds [34, 35, 36]. In a first approach, the effect of the selected compounds on cell cycle progression and the induction of apoptosis was studied in MCF-7 cell cultures. Analyses were performed by flow cytometry using the Apo-Direct kit, based on the TUNEL technique under the conditions described by the manufacturer. The cells were treated with the corresponding compound at different concentrations and time points. Camptothecin was used as a positive control at 6 µM.
# To further understand the mechanism of action of these potent compounds, their effects on cell cycle distribution in MCF-7 were studied by flow cytometry. This assay was carried out with different concentrations (Figure 6) and different time points (Figure 7).
# [3] = test system: MCF-7; assay: cells; details: Homo sapiens, MCF7, 48 h; for activity at 10 µM: read-out: Cell growth (%) MCF-7; for CC50: read-out: LC50 MCF-7; for IC (TGI): read-out: TGI MCF-7; for GI50: read-out: GI50 MCF-7, 48 h, average ± SEM
# [4] = test system: CCRF-CEM; assay: cells; details: Homo sapiens, 48 h; for activity at 10 µM: read-out: Cell growth (%) CCRF-CEM; for GI50: read-out: GI50 CCRF-CEM; for CC50: read-out: LC50 CCRF-CEM; for IC (TGI): read-out: TGI CCRF-CEM
# [5] = test system: BEAS-2B; assay: MTT cytotoxicity in nonmalignant bronchial epithelium cells; type: cell-based; details: for GI50 / IC (TGI): Homo sapiens, BEAS-2B, 48 h; for GI50: read-out: GI50 BEAS-2B; for IC (TGI): read-out: TGI BEAS-2B; for Selectivity index (SI) = GI50 (BEAS-2B)/GI50 (HTB-54): lung
# In short: (§4)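 184B5 cells grown in supplemented DMEM/F12, BEAS-2B in RPMI with 10% FBS. 1 × 10^4 cells/well exposed to increasing compound concentrations for 48 h at 37 °C, 5% CO2, then MTT 4 h and formazan dissolved in DMSO. At least 3 independent experiments in quadruplicate; cisplatin as reference.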
# [6] = as above; type: cell-based; details: human
# In short: as §4
# [7] = test system: MCF-7; assay: Cell death (subdiploid cells), Apo-Direct kit TUNEL flow cytometry; type: cell-based, human; details: 24 h, increasing doses (I.1f 10 to 80 µM)
# Procedure: as §1, §2, §3
# [8] = test system: 184B5; assay: MTT cytotoxicity in nonmalignant mammary gland derived cells; type: cell-based; details: for GI50 / IC (TGI): Homo sapiens; for GI50: read-out: GI50 184B5; for IC (TGI): read-out: TGI 184B5
# In short: as §4
# [9] = as above; type: cell-based; details: human
# In short: as §4
# [10] = 184B5, nonmalignant cells, 48 h
# [11] = nonmalignant cells, 48 h, read-out: LC50 BEAS-2B
# [12] = nonmalignant cells, 48 h, read-out: LC50 184B5
Structure (SMILES),Compound-induced cell death after preincubation with wortmannin [1],Compound-induced cell death after preincubation with Z-VAD-FMK [1],Cell cycle phase distribution [2],activity at 10 µM [3] [%],CC50 [3] [µM],IC (TGI) [3] [µM],activity at 10 µM [4] [%],GI50 [4] [µM],CC50 [4] [µM],IC (TGI) [4] [µM],GI50 ([5]; nonmalignant cells) [µM],IC (TGI) ([5]; nonmalignant cells) [µM],Selectivity index (SI) = GI50 (BEAS-2B)/GI50 (HTB-54) [5],Cell death (subdiploid cells) [7],"GI50 [8, 10] [µM]","IC (TGI) [8, 10] [µM]",GI50 [3] [µM],further results
O=C(Nc1ccc([Se][Se]c2ccc(NC(=O)c3ccc(C(F)(F)F)cc3)cc2)cc1)c1ccc(C(F)(F)F)cc1 [I.1f],prevented cell death,did not,increased the number of cells in the S phase dose-dependently,9.1,54.6 ± 0.7,13 ± 0.3,36.5,4.7 ± 0.7,79.2 ± 4.1,31.7 ± 1.8,10.7,41.8,0.42,did not stimulate cell death,6.59,44,–,LC50 (50% lethal concentration) at 48 h [6]: 72.9 µM; LC50 (50% lethal concentration) at 48 h [9]: 92.3 µM
N#C[Se]c1ccc(NC(=O)c2ccc(C(F)(F)F)cc2)cc1 [I.2f],prevented cell death,did not,increased the number of cells in the S phase dose-dependently,44.8,42.2 ± 0.8,6.2 ± 0.4,54.6,7.3 ± 0.5,> 100,> 100,20.8,47,0.70,provoked a significant increase in the number of death cells,16.6,> 100,< 1,"LC50 (50% lethal concentration) [6, 11]: 73.2 µM; LC50 (50% lethal concentration) [9, 12]: > 100 µM"
CCOP(=O)(Nc1ccc([Se]C#N)cc1)OCC [II.2d],could not prevent cell death,prevented it,arrested them in G0/G1 phase,-17.2,8.4 ± 0.1,4.1 ± 0.1,-87.4,0.2,0.9 ± 0.1,0.5,–,–,2.85,provoked a significant increase in the number of death cells,–,–,< 1,"GI50 [5]: 4.65 µM; IC (TGI) [5]: 6.59 µM; LC50 (50% lethal concentration) at 48 h [6, 11]: 8.3 µM; GI50 ([8]; 184B5, 48 h): 5.7 µM; IC (TGI) ([8]; 184B5, 48 h): 7.31 µM; Selectivity index (SI) = GI50 (184B5)/GI50 (MCF-7) ([8]; breast): 6.33; CC50 at 48 h [9, 12]: 8.93 µM"
